pIC50: −log10 of the molar value.
Key:
TLR7 = target: T1, TLR7 (Homo sapiens, UniProt Q9NYK1); assay: HEK/293 TLR7 Cell Assay; assay type: cell-based; conditions: TLR7/NFKb HEK cells, R848 agonist 10 uM final concentration, Steady-Glo readout; read-out: TLR7 potency
T1 construct: expressed in transfected cells; host or cells: HEK/293 cells carrying TLR7 and an NF-kB luciferase reporter
T1 sequence (Q9NYK1 27-1049): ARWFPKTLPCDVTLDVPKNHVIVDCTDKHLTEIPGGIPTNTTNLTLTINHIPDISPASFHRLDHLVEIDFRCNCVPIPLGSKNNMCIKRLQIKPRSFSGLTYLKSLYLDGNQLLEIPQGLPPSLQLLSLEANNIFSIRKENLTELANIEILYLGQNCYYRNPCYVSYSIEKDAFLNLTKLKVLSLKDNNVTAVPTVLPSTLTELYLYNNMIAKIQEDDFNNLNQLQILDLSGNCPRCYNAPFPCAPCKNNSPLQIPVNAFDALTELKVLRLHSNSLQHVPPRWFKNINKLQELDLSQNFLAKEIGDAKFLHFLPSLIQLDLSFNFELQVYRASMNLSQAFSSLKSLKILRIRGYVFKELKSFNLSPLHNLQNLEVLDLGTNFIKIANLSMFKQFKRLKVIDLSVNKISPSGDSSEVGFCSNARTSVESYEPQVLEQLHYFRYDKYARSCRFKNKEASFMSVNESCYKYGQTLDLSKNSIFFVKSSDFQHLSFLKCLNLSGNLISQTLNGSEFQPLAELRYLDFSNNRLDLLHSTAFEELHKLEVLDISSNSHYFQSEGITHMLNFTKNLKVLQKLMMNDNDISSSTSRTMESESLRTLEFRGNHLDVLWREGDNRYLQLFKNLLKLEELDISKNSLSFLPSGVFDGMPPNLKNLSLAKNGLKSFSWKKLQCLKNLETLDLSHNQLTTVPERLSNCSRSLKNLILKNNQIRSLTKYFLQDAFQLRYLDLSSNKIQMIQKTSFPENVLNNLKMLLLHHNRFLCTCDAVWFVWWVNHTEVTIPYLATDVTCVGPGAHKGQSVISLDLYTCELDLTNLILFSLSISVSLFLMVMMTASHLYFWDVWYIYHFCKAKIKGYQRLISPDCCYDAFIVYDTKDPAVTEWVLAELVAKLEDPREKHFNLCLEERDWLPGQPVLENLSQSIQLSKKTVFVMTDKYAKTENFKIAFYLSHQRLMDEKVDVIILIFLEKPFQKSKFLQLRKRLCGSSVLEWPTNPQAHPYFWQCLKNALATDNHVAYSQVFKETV
Procedure: (§1) Example 389: HEK/293 TLR7 Cell Assay Into 384 CulturePlates (Corning 3765) was placed 5000 c/w of TLR7/NFKb HEK cells in 30 uL DMEM without Phenol red (gibco #31053-028) and 10% heat inactivated fetal bovine serum, 10% penicillin-streptomycin, and 2 mM L-Glutamine. The cells were incubated for 24 h at 37° C., 10% carbon dioxide and 90% relative humidity. 3 uL of controls, standards, and compounds were dispensed into wells, incubated for 30 min then 3 uL of R848 agonist (10 uM final concentration) was added in 20 mM Hepes. After incubation for 5 hours, they were allowed to stand at room temperature for 15 min. To this was added 10 uL of Steady-Glo substrate reagent and shake assay plate for 5 min at 1500 rpm. The assay plate was allowed to sit for 30 min at room temperature and then the plate was read on EnVision.

TLR8 = target: T2, TLR8 (Homo sapiens, UniProt Q9NR97); assay: HEK/293 TLR8 Cell Assay; assay type: cell-based; conditions: HEK cells, R848 agonist 30 uM final concentration, Steady-Glo readout; read-out: TLR8 potency
T2 construct: expressed in transfected cells; host or cells: HEK/293 reporter cells (NF-kB luciferase)
T2 sequence (Q9NR97 27-1041): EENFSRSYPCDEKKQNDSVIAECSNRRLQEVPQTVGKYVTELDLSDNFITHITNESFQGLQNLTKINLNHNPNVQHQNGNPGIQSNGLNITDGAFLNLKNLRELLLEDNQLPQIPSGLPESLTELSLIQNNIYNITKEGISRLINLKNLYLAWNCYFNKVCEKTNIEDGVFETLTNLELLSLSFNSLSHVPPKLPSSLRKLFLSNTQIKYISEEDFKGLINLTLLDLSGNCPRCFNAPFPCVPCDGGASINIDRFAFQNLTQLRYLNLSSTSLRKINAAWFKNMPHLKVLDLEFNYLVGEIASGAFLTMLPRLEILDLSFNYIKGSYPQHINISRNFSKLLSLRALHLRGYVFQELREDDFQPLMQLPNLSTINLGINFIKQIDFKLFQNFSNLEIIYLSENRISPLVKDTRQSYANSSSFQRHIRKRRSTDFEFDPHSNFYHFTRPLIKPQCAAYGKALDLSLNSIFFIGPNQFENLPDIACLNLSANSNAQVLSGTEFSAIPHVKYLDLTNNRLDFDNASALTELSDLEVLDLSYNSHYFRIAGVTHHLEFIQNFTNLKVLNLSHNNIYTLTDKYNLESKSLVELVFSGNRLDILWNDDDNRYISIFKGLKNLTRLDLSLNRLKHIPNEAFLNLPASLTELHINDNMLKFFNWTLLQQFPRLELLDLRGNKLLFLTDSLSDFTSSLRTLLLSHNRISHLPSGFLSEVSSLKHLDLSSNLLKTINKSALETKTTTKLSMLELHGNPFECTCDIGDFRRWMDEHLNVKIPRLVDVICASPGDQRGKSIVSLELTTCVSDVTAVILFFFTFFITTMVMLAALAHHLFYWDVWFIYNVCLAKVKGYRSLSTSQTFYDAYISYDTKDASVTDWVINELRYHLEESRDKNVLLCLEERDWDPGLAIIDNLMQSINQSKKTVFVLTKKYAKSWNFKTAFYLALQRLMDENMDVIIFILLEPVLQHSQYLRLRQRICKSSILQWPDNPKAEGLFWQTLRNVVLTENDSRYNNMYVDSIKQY
Procedure: as §1, with “Example 390:” for “Example 389:”, “HEK/293 TLR8” for “HEK/293 TLR7”, “serum, 1%” for “serum, 10%”, “agonist (30” for “agonist (10”

Row | SMILES | pIC50 (TLR7) | pIC50 (TLR8)
1 | C[C@H]1C[C@@H](OCCN2CCN(C)CC2)CN(c2ccc(C#N)c3nccnc23)C1 (racemic) [Example 1, 8-[(3S,5R)-3-methyl-5-[2-(4-methylpiperazin-1-yl)ethoxy]piperidin-1-yl]quinoxaline-5-carbonitrile] | > 7.12 | > 7.12
2 | C[C@H]1C[C@@H](OCCN2CCN(C)CC2)CN(c2ccc(C(F)(F)F)c3ncccc23)C1 (racemic) [Example 2, 5-[cis-3-methyl-5-[2-(4-methylpiperazin-1-yl)ethoxy]piperidin-1-yl]-8-(trifluoromethyl)quinoline] | > 7.12 | > 7.12
3 | C[C@H]1C[C@@H](OCCN2CCCCC2)CN(c2ccc(C(F)(F)F)c3ncccc23)C1 (racemic) [Example 3, 5-[cis-3-methyl-5-[2-(piperidin-1-yl)ethoxy]piperidin-1-yl]-8-(trifluoromethyl)quinolone] | < 6.82 | > 7.12
4 | C[C@H]1C[C@@H](n2ccnn2)CN(c2ccc(C#N)c3nccnc23)C1 (racemic) [Example 153, 8-[cis-3-methyl-5-(1H-1,2,3-triazol-1-yl)piperidin-1-yl]quinoxaline-5-carbonitrile] | < 6.82 | > 7.12
5 | C[C@H]1C[C@@H](n2ccnn2)CN(c2ccc(C(F)(F)F)c3nccnc23)C1 (racemic) [Example 154, 5-[cis-3-methyl-5-(1H-1,2,3-triazol-1-yl)piperidin-1-yl]-8-(trifluoromethyl)quinoxaline] | < 6.82 | 6.82 to 7.12
6 | C[C@H]1C[C@@H](n2cccn2)CN(c2ccc(C(F)(F)F)c3nccnc23)C1 (racemic) [Example 155, 5-[cis-3-methyl-5-(1H-pyrazol-1-yl)piperidin-1-yl]-8-(trifluoromethyl)quinoxaline] | < 6.82 | < 6.82
7 | N#Cc1ccc(N2C[C@H](n3cccn3)C[C@H](C(F)(F)F)C2)c2nccnc12 (racemic) [Example 156, 8-[cis-3-(1H-pyrazol-1-yl)-5-(trifluoromethyl)piperidin-1-yl]quinoxaline-5-carbonitrile] | < 6.82 | < 6.82
8 | Cc1nnc([C@H]2CN(c3ccc(C#N)c4nccnc34)C[C@@H](C)O2)o1 (racemic) [Example 212, 8-[(2R,6R)-2-Methyl-6-(5-methyl-[1,3,4]oxadiazol-2-yl)-morpholin-4-yl]-quinoxaline-5-carbonitrile] | < 6.82 | > 7.12
9 | Cc1noc([C@H]2CN(c3ccc(C#N)c4nccnc34)C[C@@H](C)O2)n1 (racemic) [Example 213, 8-[(2R,6R)-2-Methyl-6-(3-methyl-[1,2,4]oxadiazol-5-yl)-morpholin-4-yl]-quinoxaline-5-carbonitrile] | < 6.82 | > 7.12
10 | C[C@@H]1CN(c2ccc(C#N)c3nccnc23)C[C@H](c2nc(C3CC3)no2)O1 (racemic) [Example 214, 8-[(2R,6R)-2-(3-Cyclopropyl-[1,2,4]oxadiazol-5-yl)-6-methyl-morpholin-4-yl]-quinoxaline-5-carbonitrile] | 6.82 to 7.12 | > 7.12
11 | CCN(CC)CCO[C@@H]1C[C@H](C)CN(c2ccc(C(F)(F)F)c3ncccc23)C1 (relative stereo) [Example 4, diethyl(2-[[cis-5-methyl-1-[8-(trifluoromethyl)quinolin-5-yl]piperidin-3-yl]oxy]ethyl)amine] | < 6.82 | > 7.12
12 | CC(C(=O)N[C@@H]1C[C@H](C)CN(c2ccc(C(F)(F)F)c3ncccc23)C1)N1CCN(C)CC1 (single isomer, unassigned) [Example 92] | > 7.12 | > 7.12
13 | C[C@H]1C[C@@H](NC(=O)[C@H](C)N2CCN(C)CC2)CN(c2ccc(C(F)(F)F)c3ncccc23)C1 (single isomer, unassigned) [Example 93] | > 7.12 | > 7.12

Next, values leading:

Row | pIC50 (TLR7) | pIC50 (TLR8) | SMILES
14 | > 7.12 | > 7.12 | CC(C(=O)N[C@@H]1C[C@H](C)CN(c2ccc(C#N)c3nccnc23)C1)N1CCN(C)CC1 (single isomer, unassigned) [Example 90]
15 | > 7.12 | > 7.12 | C[C@H]1C[C@@H](NC(=O)[C@H](C)N2CCN(C)CC2)CN(c2ccc(C#N)c3nccnc23)C1 (single isomer, unassigned) [Example 91]
16 | 6.82 to 7.12 | > 7.12 | CC(C(=O)N[C@@H]1C[C@H](C(F)(F)F)CN(c2ccc(C(F)(F)F)c3ncccc23)C1)N1CCN(C)CC1 (single isomer, unassigned) [Example 94]
17 | > 7.12 | > 7.12 | C[C@@H](C(=O)N[C@@H]1C[C@H](C(F)(F)F)CN(c2ccc(C(F)(F)F)c3ncccc23)C1)N1CCN(C)CC1 (single isomer, unassigned) [Example 95]
18 | 6.82 to 7.12 | < 6.82 | CC(C(=O)N[C@@H]1C[C@H](C)CN(c2ccc(C#N)c3ncncc23)C1)N1CCN(C)CC1 (single isomer, unassigned) [Example 96]
19 | > 7.12 | > 7.12 | CC(C(=O)N[C@@H]1C[C@H](C(F)(F)F)CN(c2ccc(C#N)c3nccnc23)C1)N1CCN(C)CC1 (single isomer, unassigned) [Example 98]
20 | 6.82 to 7.12 | > 7.12 | C[C@@H](C(=O)N[C@@H]1C[C@H](C(F)(F)F)CN(c2ccc(C#N)c3nccnc23)C1)N1CCN(C)CC1 (single isomer, unassigned) [Example 99]
21 | 6.82 to 7.12 | > 7.12 | CC(C(=O)N[C@@H]1C[C@H](C(F)(F)F)CN(c2ccc(C#N)c3ncccc23)C1)N1CCN(C)CC1 (single isomer, unassigned) [Example 100]

From patent publication US20210300940A1 (Merck Patent GmbH, priority 2018, published 2021)
